Experiments:
Type in all cases: biochemical
[1] = target: ATM (Homo sapiens (Human), UniProt Q13315); test: Caliper mobility shift assay for ATM; details: read-out: IC50 of inhibitory activity on ATM kinase
Description: 1.2 Determination of the Inhibitory Activities of Compounds on ATM: Caliper Mobility Shift Assay for ATM
To a 96-well plate, 98 μL of DMSO and 2 μL of the 10 mM stock solution were added and mixed evenly so that the concentration of the solution was 200 μM.
Based on the inhibitory rates of the compound at different concentrations, IC50 was calculated according to the formula: Y=Bottom+(Top−Bottom)/(1+(IC50/X)^HillSlope).

[2] = target: ATR (Homo sapiens (Human), UniProt Q13535); test: Caliper mobility shift assay for ATR; details: read-out: IC50 of kinase inhibitory activity, ATR
Description: 1.6 Determination of the Inhibitory Activity of Compounds on ATR: Caliper Mobility Shift Assay for ATR
• (1) Preparation of 1× kinase buffer and reaction termination solution • 1) 1× kinase buffer • 50 mM HEPES, pH 7.5 • 0.0015% Brij-35 • […] • 2) Reaction termination solution • 100 mM HEPES, pH 7.5 • 0.015% Brij-35 • 0.2% Coating Reagent #3 • 50 mM EDTA • (2) Preparation of test compound • 1) The compound was dissolved in DMSO to yield a stock solution. Before the assay, to a 96-well plate, 30 μL of a 10 mM stock solution was taken and added with 60 μL of DMSO. […]

[3] = target: mTOR (Homo sapiens (Human), UniProt P42345); test: LanceUltra kinase assay for mTOR; details: read-out: IC50 of kinase inhibitory activity, mTOR
[4] = target: DNA-PK (Homo sapiens (Human), UniProt P78527); test: ADP-Glo kinase assay for DNA-PK; details: read-out: IC50 of kinase inhibitory activity, DNA-PK
Description: 1.4 Determination of the Inhibitory Activities of Compounds on DNA-PK Kinase: ADP-Glo Kinase Assay
• (1) Preparation of 1× kinase buffer • 40 mM Tris, pH 7.5 • 0.0055% Brij-35 • 20 mM MgCl2 • 0.05 mM DTT • (2) Preparation of test compound • 1) The compound was dissolved in DMSO to yield a stock solution. Before the assay, the stock solution of the compound was diluted with DMSO to yield a 100× solution at a concentration that is 100 times a target concentration for assay. If the target concentration was […], the stock solution should be diluted to yield a 1 mM solution at this step. • 2) 100 μL of DMSO was added, respectively, into two blank wells in the same 96 well plate, corresponding to the total reaction control without compound and the blank control without enzyme. • 3) Preparation of test plate: 50 nL of the compound solution in each of the above wells was taken to a 384-well plate as a test plate. • (3) Kinase reaction • 1) DNA-PK kinase was dissolved in 1× kinase buffer to yield a 2× enzyme solution that is twice the final concentration. 2.5 μL of the 2× enzyme solution was taken to each well of the test plate. The blank control without enzyme was added with 2.5 μL of the 1× kinase buffer instead of the enzyme solution. […]

[5] = target: PI3Kα (p110α/p85α) (Homo sapiens (Human), UniProt P42336); test: ADP-Glo kinase assay for PI3Kα; details: read-out: IC50 of kinase inhibitory activity, PI3K α
Description: (§1) 1.3 Determination of the Inhibitory Activities of Compounds on PI3Kα, PI3Kβ, PI3Kγ, and PI3Kδ Kinase: ADP-Glo Kinase Assay
(§2) Experimental procedures • (1) Preparation of 1× kinase buffer • 50 mM HEPES, pH 7.5 • 3 mM MgCl2 • 1 mM EGTA • 100 mM NaCl • 0.03% CHAPS • 2 mM DTT • (2) Preparation of test compound • 1) Dissolution and dilution of compound: • The compound was dissolved in DMSO to yield a stock solution. Before the assay, the stock solution of the compound was diluted with DMSO in a 384-well plate to yield a 100× solution at a concentration that is 100 times a target concentration for assay. • 50 μL of DMSO was added, respectively, into two blank wells in the same 384 well plate, corresponding to the total reaction control without compound and the blank control without enzyme. • 2) Preparation of test plate: 50 nL of the compound solution in each of the above wells was taken to a test plate. • (3) Kinase reaction • 1) PI3Kα, PI3Kβ, PI3Kγ, and PI3Kδ kinases were dissolved, respectively, in 1× kinase buffer to yield a 2× enzyme solution at a concentration that is twice the final concentration. 2.5 µL of the 2× enzyme solution was taken to each well of the test plate. The blank control without enzyme was added with 2.5 μL of the 1× kinase buffer instead of the enzyme solution. […]

[6] = target: PI3Kβ (p110β); test: ADP-Glo kinase assay for PI3Kβ; details: read-out: IC50 of kinase inhibitory activity, PI3K β
Description: as §1, §2

[7] = target: PI3Kγ (pp110gamma) (Homo sapiens (Human), UniProt P48736); test: ADP-Glo kinase assay for PI3Kγ; details: read-out: IC50 of kinase inhibitory activity, PI3K γ
Description: as §1, §2

[8] = target: PI3Kδ (p110δ/p85δ) (Homo sapiens (Human), UniProt O00329); test: ADP-Glo kinase assay for PI3Kδ; details: read-out: IC50 of kinase inhibitory activity, PI3K δ
Description: as §1, §2

Chain of ATM (Q13315 whole entry): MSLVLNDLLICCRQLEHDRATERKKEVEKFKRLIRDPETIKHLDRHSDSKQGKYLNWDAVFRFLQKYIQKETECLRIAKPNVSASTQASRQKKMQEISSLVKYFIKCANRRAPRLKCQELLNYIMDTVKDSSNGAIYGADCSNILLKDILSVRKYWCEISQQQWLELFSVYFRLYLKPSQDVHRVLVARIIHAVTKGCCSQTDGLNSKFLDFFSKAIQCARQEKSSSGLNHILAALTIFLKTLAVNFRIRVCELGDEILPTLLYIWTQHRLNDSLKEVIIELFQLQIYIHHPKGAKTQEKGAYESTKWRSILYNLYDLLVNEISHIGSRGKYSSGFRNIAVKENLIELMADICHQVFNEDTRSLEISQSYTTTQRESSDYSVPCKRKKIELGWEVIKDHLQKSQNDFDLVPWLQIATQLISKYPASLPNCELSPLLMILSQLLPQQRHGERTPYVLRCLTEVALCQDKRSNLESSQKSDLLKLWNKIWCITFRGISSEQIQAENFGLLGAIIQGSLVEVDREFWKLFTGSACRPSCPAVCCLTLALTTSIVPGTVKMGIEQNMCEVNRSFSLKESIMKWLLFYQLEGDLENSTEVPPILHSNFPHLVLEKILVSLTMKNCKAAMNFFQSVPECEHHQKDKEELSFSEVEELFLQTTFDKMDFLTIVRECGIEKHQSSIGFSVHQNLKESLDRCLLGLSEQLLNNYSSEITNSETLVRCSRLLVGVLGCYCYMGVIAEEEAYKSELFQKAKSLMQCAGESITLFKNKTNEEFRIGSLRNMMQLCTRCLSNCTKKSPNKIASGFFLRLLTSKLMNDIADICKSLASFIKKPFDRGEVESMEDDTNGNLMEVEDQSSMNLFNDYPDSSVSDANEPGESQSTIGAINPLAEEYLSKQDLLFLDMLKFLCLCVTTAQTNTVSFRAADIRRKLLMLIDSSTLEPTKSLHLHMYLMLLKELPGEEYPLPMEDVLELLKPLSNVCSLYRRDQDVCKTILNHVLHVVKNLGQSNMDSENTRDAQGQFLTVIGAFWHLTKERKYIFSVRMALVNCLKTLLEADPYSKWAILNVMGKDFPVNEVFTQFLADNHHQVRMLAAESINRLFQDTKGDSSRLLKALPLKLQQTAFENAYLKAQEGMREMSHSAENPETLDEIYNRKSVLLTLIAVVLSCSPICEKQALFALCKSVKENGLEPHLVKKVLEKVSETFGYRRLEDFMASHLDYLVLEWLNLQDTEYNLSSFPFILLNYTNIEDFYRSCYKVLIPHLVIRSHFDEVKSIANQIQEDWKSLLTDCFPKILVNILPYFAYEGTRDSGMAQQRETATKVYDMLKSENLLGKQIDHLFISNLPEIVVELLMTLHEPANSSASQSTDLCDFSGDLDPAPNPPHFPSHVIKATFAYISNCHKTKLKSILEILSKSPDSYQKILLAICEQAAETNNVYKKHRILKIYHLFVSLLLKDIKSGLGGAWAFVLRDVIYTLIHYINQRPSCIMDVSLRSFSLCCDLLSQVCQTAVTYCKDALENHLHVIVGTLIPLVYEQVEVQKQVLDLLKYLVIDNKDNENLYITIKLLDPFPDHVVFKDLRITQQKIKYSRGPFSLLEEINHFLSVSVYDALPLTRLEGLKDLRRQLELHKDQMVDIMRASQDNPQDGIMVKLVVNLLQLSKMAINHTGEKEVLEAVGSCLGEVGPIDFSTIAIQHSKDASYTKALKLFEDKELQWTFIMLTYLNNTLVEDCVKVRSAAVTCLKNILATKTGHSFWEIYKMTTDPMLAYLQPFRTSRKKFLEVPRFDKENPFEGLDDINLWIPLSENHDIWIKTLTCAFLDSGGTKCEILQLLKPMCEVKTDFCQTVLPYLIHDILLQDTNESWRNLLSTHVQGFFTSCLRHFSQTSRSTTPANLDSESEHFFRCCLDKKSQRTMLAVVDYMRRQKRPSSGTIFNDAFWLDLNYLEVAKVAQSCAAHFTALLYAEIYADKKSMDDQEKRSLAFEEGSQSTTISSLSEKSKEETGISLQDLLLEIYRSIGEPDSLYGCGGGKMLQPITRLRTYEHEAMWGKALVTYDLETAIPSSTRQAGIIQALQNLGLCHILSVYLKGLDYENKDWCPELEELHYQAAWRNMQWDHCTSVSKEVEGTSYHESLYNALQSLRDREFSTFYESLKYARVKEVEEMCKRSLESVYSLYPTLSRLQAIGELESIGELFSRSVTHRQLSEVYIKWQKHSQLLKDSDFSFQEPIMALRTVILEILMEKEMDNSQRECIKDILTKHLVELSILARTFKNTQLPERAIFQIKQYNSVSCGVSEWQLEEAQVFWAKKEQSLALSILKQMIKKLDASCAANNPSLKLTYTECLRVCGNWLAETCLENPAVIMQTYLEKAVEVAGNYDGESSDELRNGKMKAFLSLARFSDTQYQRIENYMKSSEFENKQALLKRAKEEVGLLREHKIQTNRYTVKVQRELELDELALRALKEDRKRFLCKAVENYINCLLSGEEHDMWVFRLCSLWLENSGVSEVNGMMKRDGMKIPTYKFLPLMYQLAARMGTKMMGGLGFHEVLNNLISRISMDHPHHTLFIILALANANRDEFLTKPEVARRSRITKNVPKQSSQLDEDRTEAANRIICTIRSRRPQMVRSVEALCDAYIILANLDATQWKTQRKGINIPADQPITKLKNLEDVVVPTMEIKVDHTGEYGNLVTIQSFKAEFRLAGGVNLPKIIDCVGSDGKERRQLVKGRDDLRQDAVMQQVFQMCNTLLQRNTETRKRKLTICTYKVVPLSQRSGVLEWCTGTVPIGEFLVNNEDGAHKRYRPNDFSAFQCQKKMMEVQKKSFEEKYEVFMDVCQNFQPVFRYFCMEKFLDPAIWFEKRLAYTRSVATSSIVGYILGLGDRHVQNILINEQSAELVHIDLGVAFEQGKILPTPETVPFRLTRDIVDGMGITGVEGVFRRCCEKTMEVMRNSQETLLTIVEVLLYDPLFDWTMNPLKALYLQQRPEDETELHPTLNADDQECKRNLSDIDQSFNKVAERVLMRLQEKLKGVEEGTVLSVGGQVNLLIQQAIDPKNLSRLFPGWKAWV
Chain of PI3Kγ (pp110gamma) (P48736 whole entry): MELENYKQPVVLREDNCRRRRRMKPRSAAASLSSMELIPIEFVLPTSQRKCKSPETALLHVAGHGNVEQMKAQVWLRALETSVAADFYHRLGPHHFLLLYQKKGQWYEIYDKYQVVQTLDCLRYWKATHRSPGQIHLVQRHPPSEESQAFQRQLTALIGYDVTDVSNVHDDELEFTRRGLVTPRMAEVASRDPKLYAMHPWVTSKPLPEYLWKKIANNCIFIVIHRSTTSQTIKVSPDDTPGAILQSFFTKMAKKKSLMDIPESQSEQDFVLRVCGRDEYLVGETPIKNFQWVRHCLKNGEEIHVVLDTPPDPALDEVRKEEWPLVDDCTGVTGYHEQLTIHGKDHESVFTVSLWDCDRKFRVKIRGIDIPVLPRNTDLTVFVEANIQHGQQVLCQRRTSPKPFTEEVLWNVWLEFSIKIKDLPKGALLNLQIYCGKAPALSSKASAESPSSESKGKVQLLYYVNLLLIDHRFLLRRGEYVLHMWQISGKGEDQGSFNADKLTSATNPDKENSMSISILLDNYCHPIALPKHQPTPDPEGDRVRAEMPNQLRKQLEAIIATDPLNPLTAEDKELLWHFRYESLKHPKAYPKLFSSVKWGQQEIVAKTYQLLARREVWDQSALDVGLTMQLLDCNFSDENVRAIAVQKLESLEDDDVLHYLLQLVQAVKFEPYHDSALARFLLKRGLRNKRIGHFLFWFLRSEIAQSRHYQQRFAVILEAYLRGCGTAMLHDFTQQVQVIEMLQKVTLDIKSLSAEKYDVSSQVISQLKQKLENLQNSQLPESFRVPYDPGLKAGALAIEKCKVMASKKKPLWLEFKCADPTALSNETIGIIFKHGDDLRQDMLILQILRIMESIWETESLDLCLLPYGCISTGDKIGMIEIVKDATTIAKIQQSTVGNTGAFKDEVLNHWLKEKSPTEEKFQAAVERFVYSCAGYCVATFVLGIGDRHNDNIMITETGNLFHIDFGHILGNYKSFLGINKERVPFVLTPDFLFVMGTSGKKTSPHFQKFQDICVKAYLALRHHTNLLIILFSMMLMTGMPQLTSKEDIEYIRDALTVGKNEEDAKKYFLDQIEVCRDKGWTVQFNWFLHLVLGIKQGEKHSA

Structure (SMILES): CC[C@@H]1COc2c(-c3ccc(OCCCN4CCCCC4)nc3)c(F)cc3ncc4c(c23)n1c(=O)n4C [Example A-22, (R)-10-ethyl-6-fluoro-2-methyl-7-(6-(3-(piperidin-1-yl)propoxy)pyridin-3-yl)-9,10-dihydro-8-oxa-2,4,10a-triazanaphtho[2,1,8-cde]azulen-1(2H)-one]
- IC50 [1]: 0.00052 µM
- IC50 [2]: > 10 µM
- IC50 [3]: 1.28 µM
- IC50 [4]: 0.852 µM
- IC50 [5]: 6.28 µM
- IC50 [6]: > 10 µM
- IC50 [7]: > 10 µM
- IC50 [8]: > 10 µM
